One data set deals with T1, stromelysin (MMP-3) (Homo sapiens, UniProt P08254).
T1 construct: enzymatic activity of the catalytic domains of human stromelysin and of neutrophil collagenase; made in house
As to the kind of experiment: Enzyme inhibition of the catalytic domain of human stromelysin (fluorogenic substrate). The note with it: 15 min preincubation, pH=6.5, fluorescence 328 nm (ex)/393 nm (em). It is filed as biochemical. A digest of the protocol:
(§1)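 Recombinant catalytic domains of MMP-3 or MMP-8 were preincubated 15 min with compound in Tris/NaCl/CaCl2/PIPES buffer with 0.05% Brij, pH 6.5. Reaction was started with Mca-Pro-Leu-Gly-Leu-Dpa-Ala-Arg-NH2 and followed by fluorescence (328/393 nm) as rate per min; IC50 was the concentration giving 50% inhibition.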

The target in data set [1] is T2, neutrophil collagenase (MMP-8) (Homo sapiens, UniProt P22894).
T2 construct: enzymatic activity of the catalytic domains of human stromelysin and of neutrophil collagenase; made in house
The data set can be described thus: Enzyme inhibition of the catalytic domain of neutrophil collagenase (fluorogenic substrate). In kind it is biochemical. The settings on record: 15 min preincubation, pH=6.5, fluorescence 328 nm (ex)/393 nm (em). In short, it runs like this:
as §1

The melting point is the temperature of the solid-liquid transition. As usually defined, the IC50 is the concentration that inhibits the measured activity by half. A high value points to weaker potency in that assay.

T2 sequence (P22894 100-262 limits assumed): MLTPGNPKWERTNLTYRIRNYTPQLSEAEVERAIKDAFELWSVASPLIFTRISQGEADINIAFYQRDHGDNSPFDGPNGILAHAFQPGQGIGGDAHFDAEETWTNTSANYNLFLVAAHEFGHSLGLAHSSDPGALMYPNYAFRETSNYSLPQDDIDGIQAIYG
T1 sequence (P08254 100-272 limits assumed): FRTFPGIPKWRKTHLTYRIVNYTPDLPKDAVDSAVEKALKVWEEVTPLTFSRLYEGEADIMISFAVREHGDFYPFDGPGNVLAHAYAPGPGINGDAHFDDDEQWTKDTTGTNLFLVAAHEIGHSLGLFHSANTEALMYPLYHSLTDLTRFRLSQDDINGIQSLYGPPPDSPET

On to `O=C(O)C(CCN1C(=O)c2ccccc2C1=O)NS(=O)(=O)c1ccc(-c2ccccc2)cc1` (racemic) [Example 27], for which the melting point turned out to be 176 °C.
Turning to `O=C(O)C(CCN1C(=O)c2ccccc2C1=O)NS(=O)(=O)c1ccc(-c2ccc(Cl)cc2)cc1` (racemic) [Example 29], the melting point is 238 °C. Also, the concentration for half-maximal inhibition (IC50) against stromelysin (MMP-3) came out at 6 nM. The IC50 in data set [1] is 3 nM.
Molecule `O=C(O)C(CCCN1C(=O)c2ccccc2C1=O)NS(=O)(=O)c1ccc(-c2ccccc2)cc1` (racemic) [Example 30] yielded a melting point of 168 °C. Half-maximal inhibition on stromelysin (MMP-3) (IC50) was put at 30 nM. In addition, 5 nM corresponded to half-maximal inhibition in data set [1] (IC50).
In the same order, the values of `O=C(O)C(CCCN1C(=O)c2ccccc2C1=O)NS(=O)(=O)c1ccc(-c2ccc(Cl)cc2)cc1` (racemic) [Example 31] are 132 °C, 5 nM and 2 nM.
In turn, `O=C(O)C(CCCCN1C(=O)c2ccccc2C1=O)NS(=O)(=O)c1ccc(-c2ccccc2)cc1` (racemic) [Example 33] displayed a melting point of 181 °C.
Take `O=C(O)[C@@H](CCCN1C(=O)c2ccccc2C1=O)NS(=O)(=O)c1ccc(-c2ccc(Cl)cc2)cc1` [Example 6, 2-(2R)-(4-Chlorobiphenylsulfonylamino)-5-phthalimidoyl-pentanoic acid]: the melting point is 178 °C. It took 5 nM to reach half-maximal inhibition against stromelysin (MMP-3) (IC50). This molecule also came in with a half-inhibitory concentration (IC50) in data set [1] of 2 nM.
Molecule `COC(=O)[C@@H](CCCCNC(=O)OCc1ccccc1)NS(=O)(=O)c1ccc(-c2ccc(Cl)cc2)cc1` [Example 17] gave a melting point of 69 to 70 °C.
Molecule `O=C(O)[C@H](CCN1C(=O)c2ccccc2C1=O)NS(=O)(=O)c1ccc(-c2ccccc2)cc1` [Example 28] registered a melting point of 167 °C. The same molecule yielded an IC50 at stromelysin (MMP-3) of 40 nM. Also, in data set [1], the half-maximal inhibitory concentration (IC50) amounted to 6 nM.
In the same order, the values of `O=C(O)[C@H](CCCN1C(=O)c2ccccc2C1=O)NS(=O)(=O)c1ccc(-c2ccc(Cl)cc2)cc1` [Example 32] are 179 °C, 6 nM and 2 nM.
In the same order, the values of `O=C(O)[C@H](CCCN1Cc2ccccc2C1=O)NS(=O)(=O)c1ccc(-c2ccc(Cl)cc2)cc1` [Example 34] are 213 to 215 °C, 4 nM and 2 nM.
Take `O=C(O)[C@H](CCCN1Cc2ccccc2C1=O)NS(=O)(=O)c1ccc(Oc2ccc(Cl)cc2)cc1` [Example 68]: the melting point was 223 to 225 °C.
Turning to `O=C(NCCC[C@H](NS(=O)(=O)c1ccc(-c2ccc(Cl)cc2)cc1)C(=O)O)c1cc(Cl)ccc1O` [Example 162], the values for the IC50 (at stromelysin (MMP-3); in data set [1]) were 50 nM and 6 nM, respectively.
The corresponding values for `Cc1oncc1C(=O)NCCCC[C@@H](NS(=O)(=O)CCc1ccc(-c2ccccc2)cc1)C(=O)O` [Example 168] are 40 nM and 20 nM.
On to `Cc1cc(C)nc(NCCC[C@H](NS(=O)(=O)c2ccc(-c3ccccc3)cc2)C(=O)O)n1` [Example 169], for which the melting point is 226 to 227 °C.
`Cc1cc(C)nc(NCCC[C@H](NS(=O)(=O)c2ccc(-c3ccc(Cl)cc3)cc2)C(=O)O)n1` [Example 170] yielded a melting point of 177 to 179 °C. The molecule further gave an IC50 at stromelysin (MMP-3) of 20 nM. The IC50 in data set [1] is 10 nM.
In the case of `O=C(O)[C@H](CCCN1C(=O)c2ccc(Cl)cc2C1=O)NS(=O)(=O)c1ccc(-c2ccc(Cl)cc2)cc1` [Example 171], the results for the IC50 (on stromelysin (MMP-3); in data set [1]) were 30 nM and 10 nM, respectively.
Regarding `CC(C)(C)OC(=O)NCCC[C@H](NS(=O)(=O)c1ccc(Oc2ccc(Cl)cc2)cc1)C(=O)O` [Example 172], the melting point was 131 to 133 °C.

The values above are taken from US6355673B1, “Substituted diaminocarboxylic acids” (Aventis Pharma Deutschland GmbH, priority 1997, dated 2002).
